Experimental data published in publication PMC6968685 (Journal of Enzyme Inhibition and Medicinal Chemistry, 2020).

Tests used:
[1] = system: F21T (DNA, G4) GGGTTAGGGTTAGGGTTAGGG; experiment: FRET melting; settings: 10 mM K+, 90 mM Li+; 10 mM lithium cacodylate pH 7.2; 2 µM compound, 0.2 µM oligonucleotide
[2] = system: FPf1T (DNA, G4) GGGTTTAGGGTTTAGGGTTTAGGG; experiment: FRET melting; settings: 10 mM K+, 90 mM Li+; 10 mM lithium cacodylate pH 7.2; 2 µM compound, 0.2 µM oligonucleotide
[3] = system: FtrypBT (FEBR1T; FtryBT) (DNA, G4) GGGCAGGGGGTGATGGGGAGGAGCCAGGG; experiment: FRET melting; settings: 10 mM K+, 90 mM Li+; 10 mM lithium cacodylate pH 7.2; 2 µM compound, 0.2 µM oligonucleotide
[4] = system: FdxT (DNA, duplex, hexaethylene glycol linker between nucleotides 10 and 11) TATAGCTATATATAGCTATA; experiment: FRET melting; settings: 10 mM K+, 90 mM Li+; 10 mM lithium cacodylate pH 7.2; 2 µM compound, 0.2 µM oligonucleotide
[5] = system: FPf8T (DNA, G4) GGGTTCAGGGTTCAGGGTTCAGGG; experiment: FRET melting; settings: 10 mM K+, 90 mM Li+; 10 mM lithium cacodylate pH 7.2; 2 µM compound, 0.2 µM oligonucleotide
[6] = system: T. brucei brucei AnTat 1.9; experiment: In vitro antitrypanosomal activity, Alamar Blue assay; format: cell-based; settings: Trypanosoma brucei; slender bloodstream trypomastigotes, AnTat 1.9 strain; read-out: Trypanosoma brucei brucei IC50 values, Trypanos Antat 1.9
How it was run: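 Viability read-out: resazurin (Alamar Blue) fluorescence, 530 nm excitation/590 nm emission, after 5 h dye exposure following 69 h compound incubation at 37 °C, 5% CO2, 2000 parasites per well, doses in duplicate. IC50 values fitted nonlinearly, three independent runs.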

[7] = system: Plasmodium telomeric sequence FPf1T G-quadruplex; experiment: FRET melting experiments, FPf1T; format: binding, P. falciparum; settings: 2 μM compound, 0.2 μM oligonucleotide, K+ conditions
Experimental: (§1) These were performed with dual-labelled oligonucleotides mimicking the Plasmodium telomeric sequences FPf1T [FAM-5′(GGGTTTA)3-GGG3′-TAMRA] and FPf8T [FAM-5′ (GGGTTCA)3GGG3′-TAMRA], the Trypanosoma 9 and 11 chromosomic sequence FTrypBT (also named FEBR1T) [FAM-5′[…]3′-TAMRA], the human telomeric sequence F21T [FAM-(GGGTTA)3-GGG3′-TAMRA], and the human duplex sequence FdxT [FAM5′-[…]-hexaethyleneglycol-[…]3′-TAMRA][51]^,[52]. The oligonucleotides were pre-folded in 10 mM lithium cacodylate buffer (pH 7.2), with 10 mM KCl and 90 mM LiCl (K^+condition). The FAM emissions were recorded at 516 nm using a 492-nm excitation wavelength in the absence and presence of a single compound as a function of temperature (25–95 °C) in 96-well microplates by using a Stratagene MX3000P real-time PCR device at a rate of 1 °C·min^−1. Data were normalised between 0 and 1, and the required temperature for half-denaturation of oligonucleotides corresponding to the emission value of 0.5 was taken as the Tm. […] For each compound, three independent experiments were carried out.

[8] = system: human telomeric sequence F21T G-quadruplex; experiment: FRET melting experiments, F21T; format: binding; settings: 2 μM compound, 0.2 μM oligonucleotide, K+ conditions
Experimental: as §1

[9] = system: Trypanosoma 9 and 11 chromosomic sequence FTrypBT (FEBR1T) G-quadruplex; experiment: FRET melting experiments, FtrypBT; format: binding, T. brucei brucei; settings: 2 μM compound, 0.2 μM oligonucleotide, K+ conditions
Experimental: as §1

[10] = system: P. falciparum CQ-sensitive strain 3D7; experiment: In vitro antiplasmodial activity, SYBR Green I fluorescence-based method, strain 3D7; format: cell-based; settings: Plasmodium falciparum; chloroquine-sensitive strain 3D7; 48 h incubation; read-out: P. falciparum strains IC50 values, 3D7
How it was run: (§2)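 P. falciparum 3D7 and W2 cultured in human erythrocytes in RPMI with 0.5% Albumax I at 37 °C, exposed 48 h to compounds tested […]. Parasite DNA read by SYBR Green I fluorescence (ex 485/em 535 nm); IC50 by non-linear regression, mean of three independent experiments.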

[11] = system: Plasmodium telomeric sequence FPf8T G-quadruplex; experiment: FRET melting experiments, FPf8T; format: binding, P. falciparum; settings: 2 μM compound, 0.2 μM oligonucleotide, K+ conditions
Experimental: as §1

[12] = system: P. falciparum CQ-resistant strain W2; experiment: In vitro antiplasmodial activity, SYBR Green I fluorescence-based method, strain W2; format: cell-based; settings: Plasmodium falciparum; chloroquine-resistant strain W2; 48 h incubation; read-out: P. falciparum strains IC50 values, W2
How it was run: as §2

[13] = system: L. donovani (MHOM/IN/00/DEVI) promastigotes; experiment: In vitro antileishmanial activity, MTT assay on promastigotes; format: cell-based; settings: Leishmania donovani, 72 h incubation, ≥10 = no activity noted at the highest concentration tested
How it was run: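 Log-phase L. donovani MHOM/IN/00/DEVI promastigotes (10^6/ml, Schneider's + 20% FCS) were exposed to graded compound concentrations (DMSO <0.5% v/v) for 72 h at 27 °C, in duplicate. Growth measured by MTT reduction (4 h, A570 nm); IC50 obtained by regression.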

[14] = Cytotoxicity evaluation, MTT; format: cell-based, human; settings: human
How it was run: (§3)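 HepG2 hepatocarcinoma cells exposed to compound in duplicate, then viability measured by MTT reduction (0.5 mg/ml), formazan dissolved in DMSO and read at 570 nm against 630 nm. Viability expressed as percent of untreated cells; CC50 taken from dose-response curve, doxorubicin as positive control.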

[15] = system: human duplex sequence FdxT; experiment: FRET melting experiments, FdxT duplex control; format: binding; settings: 2 μM compound, 0.2 μM oligonucleotide, K+ conditions
Experimental: as §1

[16] = system: human HepG2 cells; experiment: Cytotoxicity evaluation, MTT; format: cell-based; settings: HepG2 cells; 72 h
How it was run: as §3

Structure (SMILES)	ΔTm [1]	ΔTm [2]	ΔTm [3]	ΔTm [4]	ΔTm [5]	IC50 [6]	ΔTm FPf1T [7]	ΔTm F21T [8]	ΔTm FtrypBT [9]	IC50 [10]	ΔTm FPf8T [11]	IC50 [12]	IC50 [13]	CC50 at 72 h [14]	ΔTm FdxT [15]	CC50 [16]
COc1ccc2c(-c3ccc(CNCCCCN(C)C)cc3)nc(-c3ccc(CNCCCCN(C)C)cc3)cc2c1	23.2 ± 0.6 °C	–	–	–	–	–	–	–	–	–	–	–	–	–	–	–
COc1ccc2cc(-c3ccc(CNCCCCN(C)C)cc3)nc(-c3ccc(CNCCCCN(C)C)cc3)c2c1	22.2 ± 0.1 °C	27.3 ± 1.1 °C	24.0 ± 0.3 °C	4.1 ± 0.3 °C	26.6 ± 0.2 °C	–	–	–	–	–	–	–	–	–	–	–
COc1ccc2nc(-c3ccc(CNCCCCN(C)C)cc3)nc(-c3ccc(CNCCCCN(C)C)cc3)c2c1	–	19.8 ± 0.6 °C	–	–	–	–	–	–	–	–	–	–	–	–	–	–
c1cc(CNCCN2CCOCC2)cc(-c2nc(-c3cccc(CNCCN4CCOCC4)c3)c3ccccc3n2)c1	0.1 ± 0.1 °C	0.5 ± 0.3 °C	0.6 ± 0.1 °C	–	0.5 ± 0.4 °C	–	–	–	–	–	–	–	–	–	–	–
CN1CCN(CCNCc2ccc(-c3cc(-c4ccc(CNCCN5CCN(C)CC5)cc4)c4ccccc4n3)cc2)CC1 [Compound 1f, 2,4-Bis{4-[(2–(4-methylpiperazin-1-yl)ethyl)aminomethyl]phenyl}quinoline]	–	–	–	–	–	0.99 ± 0.132 µM	10.7 ± 1.0 °C	9.5 ± 2.9 °C	9.4 ± 0.6 °C	2.42 ± 0.27 µM	11.0 ± 0.5 °C	0.13 ± 0.024 µM	≥ 10 µM	4.09 ± 0.3 µM	−0.1 ± 0.2 °C	–
CN(C)CCCNCc1ccc(-c2cc3ccccc3c(-c3ccc(CNCCCN(C)C)cc3)n2)cc1 [Compound 2b, 1,3-Bis{4-[(3-dimethylaminopropyl)aminomethyl]phenyl}isoquinoline]	–	–	–	–	–	0.35 ± 0.049 µM	13.6 ± 1.3 °C	12.7 ± 0.3 °C	11.7 ± 0.6 °C	1.82 ± 0.31 µM	13.0 ± 1.1 °C	3.02 ± 0.25 µM	≥ 10 µM	3.47 ± 0.3 µM	0.3 ± 0.2 °C	–
COc1ccc2cc(-c3ccc(CNCCCCN(C)C)cc3)nc(-c3ccc(CNCCCCN(C)C)cc3)c2c1 [Compound 2e, 7-Methoxy-1,3-bis{4-[(4-dimethylaminobutyl)aminomethyl]phenyl}isoquinoline]	–	–	–	–	–	0.55 ± 0.122 µM	27.3 ± 1.1 °C	22.2 ± 0.1 °C	24.0 ± 0.3 °C	4.41 ± 0.51 µM	26.6 ± 0.2 °C	6.06 ± 0.64 µM	≥ 10 µM	9.57 ± 1 µM	4.1 ± 0.3 °C	–
COc1ccc2cc(-c3ccc(CNCCCN(C)C)cc3)nc(-c3ccc(CNCCCN(C)C)cc3)c2c1 [Compound 2f, 7-Methoxy-1,3-bis{4-[(3-dimethylaminopropyl)aminomethyl]phenyl}isoquinoline]	–	–	–	–	–	0.52 ± 0.072 µM	20.3 ± 1.1 °C	15.8 ± 0.1 °C	16.9 ± 1.1 °C	1.47 ± 0.24 µM	18.5 ± 0.5 °C	4.76 ± 0.66 µM	≥ 10 µM	2.12 ± 0.2 µM	0.8 ± 0.3 °C	–
COc1ccc2c(-c3ccc(CNCCCCN(C)C)cc3)nc(-c3ccc(CNCCCCN(C)C)cc3)cc2c1 [Compound 2i, 6-Methoxy-1,3-bis{4-[(4-dimethylaminobutyl)aminomethyl]phenyl}isoquinoline]	–	–	–	–	–	0.64 ± 0.323 µM	12.8 ± 1.3 °C	23.2 ± 0.6 °C	8.4 ± 0.3 °C	8.46 ± 0.66 µM	12.9 ± 1.0 °C	2.4 ± 0.49 µM	≥ 10 µM	10.8 ± 0.8 µM	0.9 ± 0.1 °C	–
COc1ccc2c(-c3ccc(CNCCCN(C)C)cc3)nc(-c3ccc(CNCCCN(C)C)cc3)cc2c1 [Compound 2j, 6-Methoxy-1,3-bis{4-[(3-dimethylaminopropyl)aminomethyl]phenyl}isoquinoline]	–	–	–	–	–	0.59 ± 0.131 µM	15.3 ± 0.7 °C	13.9 ± 0.1 °C	12.2 ± 1.1 °C	7.21 ± 0.59 µM	15.0 ± 0.6 °C	5.09 ± 0.76 µM	≥ 10 µM	2.16 ± 0.2 µM	0.5 ± 0.3 °C	–
COc1ccc2nc(-c3ccc(CNCCCCN(C)C)cc3)nc(-c3ccc(CNCCCCN(C)C)cc3)c2c1 [Compound 3h, 6-Methoxy-2,4-bis{4-[(4-dimethylaminobutyl)aminomethyl]phenyl}quinazoline]	–	–	–	–	–	0.27 ± 0.035 µM	19.8 ± 0.6 °C	16.4 ± 1.3 °C	15.7 ± 0.3 °C	3.84 ± 0.38 µM	18.8 ± 0.7 °C	3.68 ± 0.5 µM	≥ 10 µM	11.7 ± 1.2 µM	2.0 ± 0.2 °C	–
COc1ccc2nc(-c3ccc(CNCCCN(C)C)cc3)nc(-c3ccc(CNCCCN(C)C)cc3)c2c1 [Compound 3i, 6-Methoxy-2,4-bis{4-[(3-dimethylaminopropyl)aminomethyl]phenyl}quinazoline]	–	–	–	–	–	0.44 ± 0.084 µM	16.0 ± 0.3 °C	12.6 ± 0.0 °C	12.7 ± 0.7 °C	4.05 ± 0.95 µM	15.6 ± 0.3 °C	4.34 ± 0.74 µM	≥ 10 µM	1.93 ± 0.1 µM	0.3 ± 0.3 °C	–
COc1ccc2nc(-c3ccc(CNCCN(C)C)cc3)nc(-c3ccc(CNCCN(C)C)cc3)c2c1 [Compound 3j, 6-Methoxy-2,4-bis{4-[(2-dimethylaminoethyl)aminomethyl]phenyl}quinazoline]	–	–	–	–	–	1.04 ± 0.085 µM	3.4 ± 0.4 °C	7.2 ± 0.4 °C	4.4 ± 0.5 °C	0.56 ± 0.02 µM	3.1 ± 0.4 °C	1.23 ± 0.15 µM	≥ 10 µM	3.12 ± 0.2 µM	−0.4 ± 0.2 °C	–
COc1ccc2c(-c3ccc(CNCCCCN(C)C)cc3)nc(-c3ccc(CNCCCCN(C)C)cc3)nc2c1 [Compound 3m, 7-Methoxy-2,4-bis{4-[(4-dimethylaminobutyl)aminomethyl]phenyl}quinazoline]	–	–	–	–	–	0.75 ± 0.06 µM	18.3 ± 0.7 °C	19.4 ± 0.4 °C	13.8 ± 0.5 °C	1.18 ± 0.43 µM	17.8 ± 0.5 °C	4.22 ± 0.55 µM	≥ 10 µM	25.1 ± 1.2 µM	1.7 ± 0.3 °C	–
N=C(N)c1ccc(OCCCCCOc2ccc(C(=N)N)cc2)cc1 [Pentamidine, reference compound]	–	–	–	–	–	0.0002 ± 6e-05 µM	–	–	–	–	–	–	5.5 ± 0.8 µM	–	–	2.3 ± 0.5 µM
